Experimental findings from patent publication US20190225650A1, “PEPTIDOMIMETIC MACROCYCLES AND USE THEREOF IN REGULATING HIF1ALPHA” (AILERON THERAPEUTICS, INC., priority 2013, published 2019) are described below.

Bridge positions count the residues as written; N and C are the ends. Square brackets hold non-standard residues; d marks the D form. Peptide text beside a SMILES is read from it. S5 = C=CCCC[C@](C)(N)C(=O)O; Nle = CCCC[C@H](N)C(=O)O; Dap = NC[C@H](N)C(=O)O

The test has as its system HRE-bla ME-180 cells. The test is described as follows: Reporter gene assay (HRE-bla ME-180 HIF reporter, GeneBLAzer). It is filed as cell-based, human. As to conditions: for EC50: 24 hour normoxia. Summed up: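 A FRET β-lactamase readout of HIF transcription was used. After compound treatment in 0.3% DMSO/media under normoxic conditions, 20 μl of 6× LiveBLAzer-FRET B/G (CCF4-AM) substrate was added. Plates sat 3 hr at room temperature in the dark and were read at 409 Ex/460Em and 409Ex/530Em on a Synergy 2. Inhibition was compared against DMSO vehicle controls, with chetomin as positive control.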

For orientation: EC50 means the concentration needed to bring the measured effect to its halfway point. With `CC[C@H](C)[C@H](NC(=O)[C@H](Cc1ccccc1)NC(C)=O)C(=O)N[C@@H](CC(=O)O)C(=O)N[C@@H](CCC(=O)O)C(=O)N[C@@H](CCC(=O)O)C(=O)N[C@H](C(=O)N[C@@H](CC(C)C)C(=O)N[C@@H](CCSC)C(=O)N[C@@]1(C)CCCC=CCCC[C@@](C)(C(=O)N[C@@H](CCSC)C(=O)N[C@@H](C)C(=O)N[C@@H](CC(C)C)C(=O)N[C@@H](CC(=O)O)C(=O)N[C@@H](CCCNC(=N)N)C(=O)N[C@H](C(=O)N[C@@H](CCCCN)C(=O)N[C@@H](CCC(=O)O)C(=O)N[C@@H](CC(C)C)C(=O)N2CCC[C@H]2C(=O)N[C@@H](CCC(=O)O)C(=O)N[C@@H](CC(C)C)C(=O)N[C@@H](Cc2c[nH]c3ccccc23)C(=O)N[C@@H](CC(C)C)C(N)=O)[C@@H](C)CC)NC(=O)[C@H]([C@@H](C)CC)NC(=O)[C@H](C(C)C)NC(=O)[C@H](CC(C)C)NC1=O)C(C)C` [SP-3] (Ac-FIDEEVLM[S5]LVI[S5]MALDRIKELPELWL-NH2; staple 9-13), the “18 h Avg % max inhibition at top conc (HIF Rptr-24 hrs normoxia) (μM)” value (from here on “18 h Avg % max inhibition at top conc”) is “+++ (≤25 but <50: +++)” and the EC50 is over 30 µM.

As to `CCCC[C@H](NC(=O)[C@H](CC(C)C)NC(=O)[C@@H](NC(=O)[C@H](C)NC(=O)[C@H](CCC(=O)O)NC(=O)[C@H](CC(=O)O)NC(=O)[C@@H](NC(=O)[C@H](Cc1ccccc1)NC(C)=O)[C@@H](C)CC)C(C)C)C(=O)N[C@@]1(C)CCCC=CCCC[C@@](C)(C(=O)N[C@@H](CCCC)C(=O)N[C@@H](C)C(=O)N[C@@H](CC(C)C)C(=O)N[C@@H](CC(=O)O)C(=O)N[C@@H](CCCNC(=N)N)C(=O)N[C@H](C(N)=O)[C@@H](C)CC)NC(=O)[C@H]([C@@H](C)CC)NC(=O)[C@H](C(C)C)NC(=O)[C@H](CC(C)C)NC1=O` [SP-13] (Ac-FIDEAVL[Nle][S5]LVI[S5][Nle]ALDRI-NH2; staple 9-13), the “18 h Avg % max inhibition at top conc” value is reported as “++++ (≥50: ++++)” and the EC50 lay within 5 to 15 µM.

As for `CCCC[C@H](NC(=O)[C@H](CC(C)C)NC(=O)[C@@H](NC(=O)[C@H](CCC(=O)O)NC(=O)[C@H](CCC(=O)O)NC(=O)[C@H](CC(=O)O)NC(=O)[C@@H](NC(=O)[C@H](Cc1ccccc1)NC(C)=O)[C@@H](C)CC)C(C)C)C(=O)N[C@@]1(C)CCCC=CCCC[C@@](C)(C(=O)N[C@@H](CCCC)C(=O)N[C@@H](CO)C(=O)N[C@@H](CC(C)C)C(=O)N[C@@H](CC(=O)O)C(=O)N[C@@H](CCCNC(=N)N)C(=O)N[C@H](C(N)=O)[C@@H](C)CC)NC(=O)[C@H]([C@@H](C)CC)NC(=O)[C@H](C(C)C)NC(=O)[C@H](CC(C)C)NC1=O` [SP-55] (Ac-FIDEEVL[Nle][S5]LVI[S5][Nle]SLDRI-NH2; staple 9-13), the “18 h Avg % max inhibition at top conc” value is given as “++++ (≥50: ++++)” and the EC50 fell in the range of 5 to 15 µM.

`CCCC[C@H](NC(=O)[C@H](CC(C)C)NC(=O)[C@@H](NC(=O)[C@H](CCC(=O)O)NC(=O)[C@H](CCC(=O)O)NC(=O)[C@H](CC(=O)O)NC(=O)[C@@H](NC(=O)[C@H](Cc1ccccc1)NC(C)=O)[C@@H](C)CC)C(C)C)C(=O)N[C@@]1(C)CCCC=CCCC[C@@](C)(C(=O)N[C@@H](CCCC)C(=O)N[C@@H](C)C(=O)N[C@@H](CC(C)C)C(=O)N[C@@H](CC(=O)O)C(=O)N[C@@H](CCCNC(=N)N)C(=O)N[C@H](C(N)=O)[C@@H](C)CC)NC(=O)[C@H](CN)NC(=O)[C@H](C(C)C)NC(=O)[C@H](CC(C)C)NC1=O` [SP-65] (Ac-FIDEEVL[Nle][S5]LV[Dap][S5][Nle]ALDRI-NH2; staple 9-13): the “18 h Avg % max inhibition at top conc” value is reported as “+ (<10: +)” and the half-maximal effective concentration (EC50) is over 30 µM.

Take `CC[C@H](C)[C@H](NC(=O)[C@H](Cc1ccccc1)NC(C)=O)C(=O)N[C@@H](CC(=O)O)C(=O)N[C@@H](CCC(=O)O)C(=O)N[C@@H](CCC(=O)O)C(=O)N[C@H](C(=O)N[C@@H](CC(C)C)C(=O)N[C@@H](C)C(=O)N[C@@]1(C)CCCC=CCCC[C@@](C)(C(=O)N[C@@H](C)C(=O)N[C@@H](C)C(=O)N[C@@H](CC(C)C)C(=O)N[C@@H](CC(=O)O)C(N)=O)NC(=O)[C@H]([C@@H](C)CC)NC(=O)[C@H](C(C)C)NC(=O)[C@H](CC(C)C)NC1=O)C(C)C` [SP-60] (Ac-FIDEEVLA[S5]LVI[S5]AALD-NH2; staple 9-13): the “18 h Avg % max inhibition at top conc” value is on record as “+ (<10: +)” and the EC50 was over 30 µM.

`CCCC[C@H](NC(=O)[C@H](CC(C)C)NC(=O)[C@@H](NC(=O)[C@H](CCC(=O)O)NC(=O)[C@H](CCC(=O)O)NC(=O)[C@H](CC(=O)O)NC(=O)[C@@H](NC(=O)[C@H](Cc1ccccc1)NC(C)=O)[C@@H](C)CC)C(C)C)C(=O)N[C@@]1(C)CCCC=CCCC[C@@](C)(C(=O)N[C@@H](CCCC)C(=O)NCC(=O)N[C@@H](CC(C)C)C(=O)N[C@@H](CC(=O)O)C(=O)N[C@@H](CCCNC(=N)N)C(=O)N[C@H](C(N)=O)[C@@H](C)CC)NC(=O)[C@H]([C@@H](C)CC)NC(=O)[C@H](C(C)C)NC(=O)[C@H](CC(C)C)NC1=O` [SP-21] (Ac-FIDEEVL[Nle][S5]LVI[S5][Nle]GLDRI-NH2; staple 9-13): the “18 h Avg % max inhibition at top conc” value is “++++ (≥50: ++++)” and the EC50 lay in the range of 5 to 15 µM.

Take `CCCC[C@H](NC(=O)[C@H](CC(C)C)NC(=O)[C@@H](NC(=O)[C@H](CCC(=O)O)NC(=O)[C@H](CCC(=O)O)NC(=O)[C@H](CC(=O)O)NC(=O)[C@@H](NC(=O)[C@H](CO)NC(C)=O)[C@@H](C)CC)C(C)C)C(=O)N[C@@]1(C)CCCC=CCCC[C@@](C)(C(=O)N[C@@H](CCCC)C(=O)N[C@@H](C)C(=O)N[C@@H](CC(C)C)C(=O)N[C@@H](CC(=O)O)C(=O)N[C@@H](CCCNC(=N)N)C(=O)N[C@H](C(N)=O)[C@@H](C)CC)NC(=O)[C@H]([C@@H](C)CC)NC(=O)[C@H](C(C)C)NC(=O)[C@H](CC(C)C)NC1=O` [SP-44] (Ac-SIDEEVL[Nle][S5]LVI[S5][Nle]ALDRI-NH2; staple 9-13): the “18 h Avg % max inhibition at top conc” value is “+++ (≤25 but <50: +++)” and the concentration for a half-maximal effect (EC50) lay in the range of 15 to 30 µM.

In the case of `CCCC[C@H](NC(=O)[C@]1(C)CCCC=CCCC[C@](C)(NC(=O)[C@H](CO)NC(=O)[C@H](CC(C)C)NC(=O)[C@@H](NC(=O)[C@H](CCC(=O)O)NC(=O)[C@H](CCC(=O)O)NC(=O)[C@H](CC(=O)O)NC(=O)[C@@H](NC(=O)[C@H](Cc2ccccc2)NC(C)=O)[C@@H](C)CC)C(C)C)C(=O)N[C@@H](CC(C)C)C(=O)N[C@@H](C(C)C)C(=O)N[C@@H]([C@@H](C)CC)C(=O)N1)C(=O)N[C@@H](C)C(=O)N[C@@H](CC(C)C)C(=O)N[C@@H](CC(=O)O)C(=O)N[C@@H](CCCNC(=N)N)C(=O)N[C@H](C(N)=O)[C@@H](C)CC` [SP-50] (Ac-FIDEEVLS[S5]LVI[S5][Nle]ALDRI-NH2; staple 9-13), the “18 h Avg % max inhibition at top conc” value was “++++ (≥50: ++++)” and the EC50 was at most 5 µM.

`CCCC[C@H](NC(=O)[C@H](CC(C)C)NC(=O)[C@@H](NC(=O)[C@H](CCC(=O)O)NC(=O)[C@H](CCC(=O)O)NC(=O)[C@H](CC(=O)O)NC(=O)[C@@H](NC(=O)[C@H](Cc1ccccc1)NC(C)=O)[C@@H](C)CC)C(C)C)C(=O)N[C@@]1(C)CCCC=CCCC[C@@](C)(C(=O)N[C@@H](CCCC)C(=O)N[C@@H](C)C(=O)N[C@@H](CC(C)C)C(=O)N[C@@H](CC(=O)O)C(=O)N[C@@H](CCCNC(=N)N)C(=O)N[C@@H](CCC(=O)O)C(N)=O)NC(=O)[C@H]([C@@H](C)CC)NC(=O)[C@H](C(C)C)NC(=O)[C@H](CC(C)C)NC1=O` [SP-42] (Ac-FIDEEVL[Nle][S5]LVI[S5][Nle]ALDRE-NH2; staple 9-13): the “18 h Avg % max inhibition at top conc” value is listed as “++ (≤10 but <25: ++)” and the half-maximal effective concentration (EC50) was over 30 µM.

Consider `CC[C@H](C)[C@H](NC(=O)[C@H](CCCNC(=N)N)NC(=O)[C@H](CC(=O)O)NC(=O)[C@H](CC(C)C)NC(=O)[C@H](C)NC(=O)[C@H](C)NC(=O)[C@]1(C)CCCC=CCCC[C@](C)(NC(=O)[C@H](C)NC(=O)[C@H](CC(C)C)NC(=O)[C@@H](NC(=O)[C@H](CCC(N)=O)NC(=O)[C@H](CCC(=O)O)NC(=O)[C@H](CC(=O)O)NC(=O)[C@@H](NC(=O)[C@H](Cc2ccccc2)NC(C)=O)[C@@H](C)CC)C(C)C)C(=O)N[C@@H](CC(C)C)C(=O)N[C@@H](C(C)C)C(=O)N[C@@H]([C@@H](C)CC)C(=O)N1)C(N)=O` [SP-70] (Ac-FIDEQVLA[S5]LVI[S5]AALDRI-NH2; staple 9-13), for which the “18 h Avg % max inhibition at top conc” value is “+++ (≤25 but <50: +++)” and the 50% effective concentration (EC50) is 5 to 15 µM.

Regarding `CCCC[C@H](NC(=O)[C@H](CC(C)C)NC(=O)[C@@H](NC(=O)[C@H](CCC(=O)O)NC(=O)[C@H](CCC(=O)O)NC(=O)[C@H](CC(=O)O)NC(=O)[C@@H](NC(=O)[C@H](Cc1ccccc1)NC(C)=O)[C@@H](C)CC)C(C)C)C(=O)N[C@@]1(C)CCCC=CCCC[C@@](C)(C(=O)N[C@@H](CCCC)C(=O)N[C@@H](C)C(=O)N[C@@H](CC(C)C)C(=O)N[C@@H](CC(=O)O)C(=O)N[C@@H](CCCNC(=N)N)C(=O)N[C@H](C(N)=O)[C@@H](C)CC)NC(=O)[C@H]([C@@H](C)CC)NC(=O)[C@H](CCC(=O)O)NC(=O)[C@H](CC(C)C)NC1=O` [SP-36] (Ac-FIDEEVL[Nle][S5]LEI[S5][Nle]ALDRI-NH2; staple 9-13), the “18 h Avg % max inhibition at top conc” value was “+ (<10: +)” and the EC50 was over 30 µM.

On to `CCCC[C@H](NC(=O)[C@H](CC(C)C)NC(=O)[C@@H](NC(=O)[C@H](CCC(=O)O)NC(=O)[C@H](CCC(=O)O)NC(=O)[C@H](CC(=O)O)NC(=O)[C@@H](NC(=O)[C@H](Cc1ccccc1)NC(C)=O)[C@@H](C)CC)C(C)C)C(=O)N[C@@]1(C)CCCC=CCCC[C@@](C)(C(=O)N[C@@H](CCCC)C(=O)N[C@@H](C)C(=O)N[C@@H](C)C(=O)N[C@@H](CC(=O)O)C(=O)N[C@@H](CCCNC(=N)N)C(=O)N[C@H](C(N)=O)[C@@H](C)CC)NC(=O)[C@H]([C@@H](C)CC)NC(=O)[C@H](C(C)C)NC(=O)[C@H](CC(C)C)NC1=O` [SP-22] (Ac-FIDEEVL[Nle][S5]LVI[S5][Nle]AADRI-NH2; staple 9-13), for which the “18 h Avg % max inhibition at top conc” value was “++++ (≥50: ++++)” and the half-maximal effective concentration (EC50) lay within 5 to 15 µM.
